# Measurements reported in US5149834A, “4-Hydroxytetrahydropyran-2-one derivatives” (Fujirebio Inc., priority 1990, dated 1992).
# Assays:
# HMG Co-A Reductase = target: T1, HMG Co-A Reductase (Rattus norvegicus, UniProt P51639); experiment: Measurement of inhibiting effect on HMG Co-A reductase (inhibiting ratio of biosynthesis of cholesterol); assay type: biochemical; settings: 0.1 μM samples, compactin = 100
# T1 construct: from tissue
# T1 sequence (P51639 1-887): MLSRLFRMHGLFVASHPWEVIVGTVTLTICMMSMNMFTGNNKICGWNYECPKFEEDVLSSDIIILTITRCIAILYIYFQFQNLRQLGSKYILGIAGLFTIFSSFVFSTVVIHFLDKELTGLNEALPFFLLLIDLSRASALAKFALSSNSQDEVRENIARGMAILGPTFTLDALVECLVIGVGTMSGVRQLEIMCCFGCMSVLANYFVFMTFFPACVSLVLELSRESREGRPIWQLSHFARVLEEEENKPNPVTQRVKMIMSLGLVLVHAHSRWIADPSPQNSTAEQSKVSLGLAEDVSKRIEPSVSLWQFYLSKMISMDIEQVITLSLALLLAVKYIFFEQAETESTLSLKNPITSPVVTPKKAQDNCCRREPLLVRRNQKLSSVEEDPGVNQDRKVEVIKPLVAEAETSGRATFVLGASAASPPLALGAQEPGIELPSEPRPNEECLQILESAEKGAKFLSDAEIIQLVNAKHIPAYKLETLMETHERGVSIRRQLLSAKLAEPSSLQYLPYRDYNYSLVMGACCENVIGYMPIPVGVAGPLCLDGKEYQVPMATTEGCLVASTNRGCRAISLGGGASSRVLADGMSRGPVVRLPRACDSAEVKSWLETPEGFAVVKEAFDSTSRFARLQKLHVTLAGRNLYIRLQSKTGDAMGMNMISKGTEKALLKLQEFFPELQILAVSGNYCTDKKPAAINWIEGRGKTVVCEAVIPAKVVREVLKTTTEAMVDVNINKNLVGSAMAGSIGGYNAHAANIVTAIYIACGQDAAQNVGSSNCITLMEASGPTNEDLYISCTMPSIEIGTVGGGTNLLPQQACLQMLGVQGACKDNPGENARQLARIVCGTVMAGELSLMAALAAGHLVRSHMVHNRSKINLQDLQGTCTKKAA
# Procedure: The inhibiting effect on HMG Co-A Reductase of representative examples of the 4-hydroxytetrahydropyran-2-one derivatives prepared in the above-discussed examples was measured in accordance with the method described in Journal of Biological Chemistry (J. Biol. Chem.) Vol. 234, page 2835 (1959) in order to investigate the inhibiting activity of each derivative in terms of the inhibiting ratio of the biosynthesis of cholesterol.
# rat brain homogenate = experiment: Anti-oxidation function: inhibition of automatic ABARTS reproduction of rat brain homogenate; assay type: biochemical; settings: vitamin E as reference = 100
# Procedure: The anti-oxidation function of some examples of the 4-hydroxytetrahydropyran-2-one derivatives prepared in the above-discussedexamples was measured as a reference of the inhibition function of the automatic ABARTS reproduction of the rat brain homogenate in accordance with the method described in Nippon Yakuri-shi 87, 427-434 (1986) by K. Shintomi et al.
Compound,"Inhibiting Activity (Inhibiting Ratio of Biosynthesis of Cholesterol), relative value when the value of compactin is 100 (HMG Co-A Reductase)",Anti-oxidation Function (rat brain homogenate)
Cc1c(CC[C@@H]2C[C@@H](O)CC(=O)O2)c2c(c(C)c1OCc1ccccc1)CCC(C)(C)O2 (relative stereo) [Compound No. 45],39,
"CC(=O)Oc1c(C)c(CC[C@H]2C[C@H](O)CC(=O)O2)c2c(c1C)CC(C)(C)O2 (racemic) [Compound No. 33, trans-(±)-6-(5-acetoxy-2,3-dihydro-2,2,4,6-tetramethylbenzo[b]furan-7-yl)ethyl-4-hydroxytetrahydropyran-2-one]",21,
"Cc1c2c(c(CC[C@H]3C[C@H](O)CC(=O)O3)c(C(C)(C)C)c1OCc1ccccc1)OC(C)(C)C2 (racemic) [Compound No. 112, trans-(±)-6-[5-benzyloxy-6-(t-butyl)-2,3-dihydro-2,2,4-trimethylbenzo[b]furan-7-yl]ethyl-4-hydroxytetrahydropyran-2-one]",190,
Vitamin E [reference compound],,100
"Cc1c(CC[C@@H]2C[C@@H](O)CC(=O)O2)c2c(c(C)c1OCc1ccccc1)CC(C)(C)O2 (relative stereo) [Compound No. 13, trans-(±)-6-(5-benzyloxy-2,3-dihydro-2,2,4,6-tetramethylbenzo[b]furan-7-ethyl-4-hydroxytetrahydropyran-2-one]",50,
"CC(=O)Oc1c(C)c(CC[C@@H]2C[C@@H](O)CC(=O)O2)c2c(c1C)CCC(C)(C)O2 (relative stereo) [Compound No. 50, trans-(±)-6-[(6-acetoxy-2,2,5,7-tetramethyl)chroman-8-yl]ethyl-4-hydroxytetrahydropyran-2-one]",12,106

# Now from value to compound, other results behind:
"Inhibiting Activity (Inhibiting Ratio of Biosynthesis of Cholesterol), relative value when the value of compactin is 100 (HMG Co-A Reductase)",Compound,Anti-oxidation Function (rat brain homogenate)
90,"Cc1c(CC[C@@H]2C[C@@H](O)CC(=O)O2)c2c(c(C)c1OC(=O)c1cccnc1)CC(C)(C)O2 (relative stereo) [Compound No. 31, trans-(±)-6-[2,3-dihydro-5-(pyridine-3-carboxy)-2,2,4,6-tetramethylbenzo[b]furan-7-yl]ethyl-4-hydroxytetrahydropyran-2-one]",
300,"CC1(C)Cc2cc(OCc3ccccc3)c(C(C)(C)C)c(CC[C@H]3C[C@H](O)CC(=O)O3)c2O1 (racemic) [Compound No. 124, trans-(±)-6-[5-benzyloxy-6-(t-butyl)-2,3-dihydro-2,2-dimethylbenzo[b]furan-7-yl]ethyl-4-hydroxytetrahydropyran-2-one]",
250,"CC(C)c1c(OCc2ccccc2)cc2c(c1CC[C@H]1C[C@H](O)CC(=O)O1)OC(C)(C)C2 (racemic) [Compound No. 154, trans-(±)-6-[5-benzyloxy-2,3-dihydro-2,2-dimethyl-6-(2-propyl)benzo[b]furan-7-yl]ethyl-4-hydroxytetrahydropyran-2-one]",
180,"Cc1c2c(c(CC[C@@H]3C[C@@H](O)CC(=O)O3)c(C(C)C)c1OC(=O)c1cccnc1)OC(C)(C)C2 (relative stereo) [Compound No. 156, trans-(±)-6-[2,3-dihydro-6-(2-propyl)-5-(pyridine-3-carboxy)-2,2,4-trimethylbenzo[b]furan-7-yl]ethyl-4-hydroxytetrahydropyran-2-one]",
28,"Cc1c(O)c(C)c2c(c1CC[C@@H]1C[C@@H](O)CC(=O)O1)OC(C)(C)CC2 (relative stereo) [Compound No. 46, trans-(±)-6-[(6-hydroxy-2,2,5,7-tetramethyl)chroman-8-yl]ethyl-4-hydroxytetrahydropyran-2-one]",106
11,"Cc1c(O)c(C)c2c(c1CC[C@H]1C[C@H](O)CC(=O)O1)OC(C)(C)C2 (racemic) [Compound No. 14, trans-(±)-6-(2,3-dihydro-5-hydroxy-2,2,4,6-tetramethylbenzo[b]furan-7-yl)ethyl-4-hydroxytetrahydropyran-2-one]",106
18,"Cc1c(CC[C@@H]2C[C@@H](O)CC(=O)O2)c2c(c(C)c1OC(=O)c1cccnc1)CCC(C)(C)O2 (relative stereo) [Compound No. 52, trans-(±)-6-[[6-pyridine-3-carboxy)-2,2,5,7-tetramethyl]-chroman-8-yl]ethyl-4-hydroxytetrahydropyran-2-one]",19
427,"Cc1c2c(c(CC[C@H]3C[C@H](O)CC(=O)O3)c(C(C)C)c1OCc1ccccc1)OC(C)(C)C2 (racemic) [Compound No. 81, trans-(±)-6-[5-benzyloxy-2,3-dihydro-6-(2-propyl)-2,2,4-trimethylbenzo[b]furan-7-yl]ethyl-4-hydroxytetrahydropyran-2-one]",
